Like-named read-outs stand apart in the source and are kept apart here.
Tests used:
Format in all cases: cell-based
Parameters in all cases: expressed in transfected cells; host or cells: HEK293 (stably transfected)
hOCT2 [1] = biological target: T1, hOCT2 (Homo sapiens, UniProt O15244); assay: Inhibition of hOCT2-mediated 14C-metformin uptake in transfected HEK293 cells
T1 sequence (O15244 1-555): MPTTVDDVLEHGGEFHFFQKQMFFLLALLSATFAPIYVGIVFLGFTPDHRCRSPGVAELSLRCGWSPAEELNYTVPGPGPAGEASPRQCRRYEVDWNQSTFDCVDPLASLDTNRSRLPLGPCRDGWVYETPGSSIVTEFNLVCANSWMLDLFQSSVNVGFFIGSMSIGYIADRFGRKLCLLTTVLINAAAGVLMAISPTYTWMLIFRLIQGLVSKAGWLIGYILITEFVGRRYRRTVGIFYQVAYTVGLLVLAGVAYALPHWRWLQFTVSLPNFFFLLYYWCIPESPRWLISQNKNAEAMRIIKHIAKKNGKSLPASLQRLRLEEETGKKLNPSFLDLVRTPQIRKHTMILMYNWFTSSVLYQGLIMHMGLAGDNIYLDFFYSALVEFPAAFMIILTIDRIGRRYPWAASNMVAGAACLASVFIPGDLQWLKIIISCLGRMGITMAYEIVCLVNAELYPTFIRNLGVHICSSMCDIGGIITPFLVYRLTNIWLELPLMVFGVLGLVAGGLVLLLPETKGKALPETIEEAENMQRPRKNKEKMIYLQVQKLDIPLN
Method: (§1) The uptake assays were performed as previously described in 24-well plates. […] After incubation, the uptake was stopped by aspirating the reaction mixture and washing the cells three times with 0.4 mL ice-cold PBS buffer. Cells were then solubilized with 0.6 mL of 1 N NaOH, overnight. The whole content of each well (0.6 mL) was transferred to a scintillation vial (Perkin Elmer). The radio-labelled amount was determined by liquid scintillation counting.
(§2) All inhibition experiments were conducted on at least two separate days in triplicate.
(§3) For screening experiments, cis-inhibition was carried out in duplicate by measuring the uptake of the labeled probe substrate in the absence and presence of 10 µM or 100 µM of the respective pesticide or drug. […] Inhibitory effects in percent were calculated from net-uptake. […]

mOct2 [2] = biological target: T2, mOct2 (Mus musculus, UniProt O70577); assay: Inhibition of mOct2-mediated 14C-metformin uptake in transfected HEK293 cells
T2 sequence (O70577 1-553): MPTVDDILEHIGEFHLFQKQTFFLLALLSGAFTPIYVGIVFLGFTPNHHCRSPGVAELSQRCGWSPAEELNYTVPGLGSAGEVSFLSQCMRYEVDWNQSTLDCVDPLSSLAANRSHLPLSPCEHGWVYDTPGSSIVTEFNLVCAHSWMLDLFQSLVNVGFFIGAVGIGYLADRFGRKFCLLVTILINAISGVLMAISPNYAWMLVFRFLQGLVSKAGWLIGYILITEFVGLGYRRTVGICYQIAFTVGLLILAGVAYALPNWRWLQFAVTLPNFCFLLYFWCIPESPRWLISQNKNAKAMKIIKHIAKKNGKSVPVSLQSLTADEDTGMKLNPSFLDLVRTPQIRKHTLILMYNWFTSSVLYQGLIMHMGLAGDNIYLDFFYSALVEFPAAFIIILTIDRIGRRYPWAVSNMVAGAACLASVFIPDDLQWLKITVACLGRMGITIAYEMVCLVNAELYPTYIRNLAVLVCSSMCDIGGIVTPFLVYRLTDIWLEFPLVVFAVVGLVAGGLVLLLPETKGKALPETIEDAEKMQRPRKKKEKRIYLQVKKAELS
Method: as §1, §2, §3

hOCT2 [3] = biological target: T1, hOCT2; assay: Inhibition of hOCT2-mediated 3H-MPP uptake in transfected HEK293 cells
Method: (§4) With cDNA of hOCT2 (GeneBank: accession number: NM_003058.3) or mOct2 (NM_013667.2), stably overexpressing HEK293 cells were used for the experiments and empty vector-transfected HEK cells were used as control-HEK cells.
(§5) The uptake assays were performed as previously described in 24-well plates. Therefore, culture medium was aspirated, and each well was rinsed three times with 0.5 mL incubation buffer (HBSS supplemented with 20 mM HEPES, pH 7.4) and then incubated in 200 µL dosing solution containing ^3H-MPP or ^14C-metformin and the test compound. After incubation, the uptake was stopped by aspirating the reaction mixture and washing the cells three times with 0.4 mL ice-cold PBS buffer. Cells were then solubilized with 0.6 mL of 1 N NaOH, overnight. The whole content of each well (0.6 mL) was transferred to a scintillation vial (Perkin Elmer). The radio-labelled amount was determined by liquid scintillation counting.
(§6) […]. All inhibition experiments were conducted on at least two separate days in triplicate.
(§7) The Km and Vmax values were obtained using SigmaPlot version 13 by fitting the Michaelis–Menten equation V = Vmax*[S]/(Km + [S]), where V refers to the rate of substrate transport, Vmax refers to the maximum rate of substrate transport, [S] refers to the concentration of substrate, and Km is defined as the concentration of substrate at the half-maximal transport rate.

mOct2 [4] = biological target: T2, mOct2; assay: Inhibition of mOct2-mediated 3H-MPP uptake in transfected HEK293 cells
Method: as §4, §5, §6, §7

[5] = HEK293, read-out: Inhibitory Effects (%) hOCT2 10 µM Mean
[6] = HEK293, read-out: Inhibitory Effects (%) hOCT2 100 µM Mean
[7] = HEK293, read-out: Inhibitory Effects (%) mOct2 10 µM Mean
[8] = HEK293, read-out: Inhibitory Effects (%) mOct2 100 µM Mean
[9] = HEK293, 10 µM test compound, 1 µM [14C]metformin, 2 min, HEK293, negative = stimulation, read-out: Inhibitory Effects (%) mOct2 10 µM Mean
[10] = HEK293, 100 µM test compound, 1 µM [14C]metformin, 2 min, HEK293, negative = stimulation, read-out: Inhibitory Effects (%) mOct2 100 µM Mean

Structure (SMILES) | inhibition at 10 µM (hOCT2 [1]; [5]) | inhibition at 100 µM (hOCT2 [1]; [6]) | inhibition at 10 µM (mOct2 [2]; [7]) | inhibition at 100 µM (mOct2 [2]; [8]) | further results
O=C(O)CNCP(=O)(O)O [Glyphosat] | -24% | -48% | -13% | -31% | 
C=C[C@H]1C[N@@]2CC[C@H]1C[C@@H]2[C@@H](O)c1ccnc2ccc(OC)cc12 [Quinidine] |  |  |  |  | inhibition at 10 µM (hOCT2 [1]; HEK293; read-out: Inhibitory Effects (%) hOCT2 10 µM Mean): -50%; inhibition at 100 µM (hOCT2 [1]; HEK293; read-out: Inhibitory Effects (%) hOCT2 100 µM Mean): -31%; inhibition at 10 µM (mOct2 [2]; [9]): -38%; inhibition at 100 µM (mOct2 [2]; [10]): -28%
O=[N+]([O-])NC1=NCCN1Cc1ccc(Cl)nc1 [Imidacloprid] | -74% | -43% | -52% | -29% | 
CCCN(CCOc1c(Cl)cc(Cl)cc1Cl)C(=O)n1ccnc1 [Prochloraz] | -43% | -17% | -13% | 10% | 
CO/C=C(/C(=O)OC)c1ccccc1Oc1cc(Oc2ccccc2C#N)ncn1 [Azoxystrobin] |  |  |  |  | Inhibitory Effects (%) hOCT2 10 µM Mean (hOCT2 [1]; 10 µM test compound; 1 µM [14C]metformin, 2 min, HEK293; negative = stimulation): −40%; Inhibitory Effects (%) hOCT2 100 µM Mean (hOCT2 [1]; 100 µM test compound; 1 µM [14C]metformin, 2 min, HEK293; negative = stimulation): −14%; Inhibitory Effects (%) mOct2 10 µM Mean (mOct2 [2]; 10 µM test compound, 1 µM [14C]metformin, 2 min, HEK293, negative = stimulation): −6%; Inhibitory Effects (%) mOct2 100 µM Mean (mOct2 [2]; 100 µM test compound, 1 µM [14C]metformin, 2 min, HEK293, negative = stimulation): −17%
CN/C(=N/CCSCc1nc[nH]c1C)NC#N [Cimetidine] |  |  |  |  | inhibition at 10 µM (hOCT2 [1]; HEK293, 10 µM test compound; 1 µM [14C]metformin, 2 min, HEK293; negative = stimulation; read-out: Inhibitory Effects (%) hOCT2 10 µM Mean): -50%; inhibition at 100 µM (hOCT2 [1]; HEK293, 100 µM test compound; 1 µM [14C]metformin, 2 min, HEK293; negative = stimulation; read-out: Inhibitory Effects (%) hOCT2 100 µM Mean): -17%; inhibition at 10 µM (mOct2 [2]; [9]): -42%; inhibition at 100 µM (mOct2 [2]; [10]): 24%
Cc1ccc(/N=C/N(C)/C=N/c2ccc(C)cc2C)c(C)c1 [Amitraz] | -98% | -96% | -33% | -12% | 
C=CCOC(Cn1ccnc1)c1ccc(Cl)cc1Cl (centres unmarked) [Imazalil] | 52% | 93% | 83% | 97% | IC50 (hOCT2 [3]): 51 ± 16 µM; Fold higher IC50 for hOCT2 than for mOct2 (hOCT2 [3]; MPP as substrate): 2 fold; IC50 (mOct2 [4]): 23 ± 6 µM; IC50 (hOCT2 [1]): 4.7 µM; IC50 (mOct2 [2]): 0.58 µM; Fold higher inhibitory potency to mouse than to human OCT2 (IC50 ratio) (mOct2 [2]; metformin as substrate): 8 fold

Source: paper PMC9780857 (International Journal of Molecular Sciences, 2022)
